Reference: patent publication US11897904B2, “Herbicidally active bicyclic benzamides” (Bayer Aktiengesellschaft, priority 2017, dated 2024)

Key:
AMARE [1] = assay: Post-emergence herbicidal action; format: in vivo, Amaranthus retroflexus; settings: rated visually after about 3 weeks vs untreated controls
Procedure: (§1) 2. Post-Emergence Herbicidal Action and Crop Plant Compatibility
(§2) Seeds of monocotyledonous and dicotyledonous weeds and crop plants are placed in sandy loam in plastic or organic planting pots, covered with soil and cultivated in a greenhouse under controlled growth conditions. 2 to 3 weeks after sowing, the test plants are treated at the one-leaf stage. The compounds of the invention, formulated in the form of wettable powders (WP) or as emulsion concentrates (EC), are then sprayed onto the green parts of the plants as aqueous suspension or emulsion with addition of 0.5% additive at a water application rate of […] (converted). After the test plants had been kept in the greenhouse under optimum growth conditions for about 3 weeks, the activity of the preparations is rated visually in comparison to untreated controls. The tables below show the herbicidal activity of numerous compounds according to the invention against important harmful plants. For example, 100% activity=the plants have died, 0% activity=like control plants.

MATIN [2] = assay: Pre-emergence herbicidal action; format: in vivo, Matricaria inodora; settings: pre-emergence, scored visually after about 3 weeks vs untreated controls
Excerpt: (§3) 1. Pre-Emergence Herbicidal Action and Crop Plant Compatibility
(§4) Seeds of monocotyledonous and dicotyledonous weed plants and crop plants are placed in plastic or organic planting pots and covered with soil. The compounds of the invention, formulated in the form of wettable powders (WP) or as emulsion concentrates (EC), are then applied onto the surface of the covering soil as aqueous suspension or emulsion with addition of 0.5% additive at a water application rate of 600 l/ha (converted). After the treatment, the pots are placed in a greenhouse and kept under good growth conditions for the trial plants. After about 3 weeks, the effect of the preparations is scored visually in comparison with untreated controls as percentages. The tables below show the herbicidal activity of numerous compounds according to the invention against important harmful plants. For example, 100% activity=the plants have died, 0% activity=like control plants.

ABUTH [3] = assay: Post-emergence herbicidal action; format: in vivo, Abutilon theophrasti; settings: post-emergence, rated visually after about 3 weeks vs untreated controls
Procedure: as §1, §2

VIOTR [4] = assay: Post-emergence herbicidal action; format: in vivo, Viola tricolor; settings: rated visually after about 3 weeks vs untreated controls
Procedure: as §1, §2

PHBPU = assay: Post-emergence herbicidal action; format: in vivo, Ipomoea purpurea; settings: rated visually after about 3 weeks vs untreated controls
Procedure: as §1, §2

STEME [5] = assay: Post-emergence herbicidal action; format: in vivo, Stellaria media; settings: rated visually after about 3 weeks vs untreated controls
Procedure: as §1, §2

STEME [6] = assay: Pre-emergence herbicidal action; format: in vivo, Stellaria media; settings: scored visually after about 3 weeks vs untreated controls
Excerpt: as §3, §4

ABUTH [7] = assay: Pre-emergence herbicidal action; format: in vivo, Abutilon theophrasti; settings: pre-emergence, scored visually after about 3 weeks vs untreated controls
Excerpt: as §3, §4

VIOTR [8] = assay: Pre-emergence herbicidal action; format: in vivo, Viola tricolor; settings: scored visually after about 3 weeks vs untreated controls
Excerpt: as §3, §4

AMARE [9] = assay: Pre-emergence herbicidal action; format: in vivo, Amaranthus retroflexus; settings: scored visually after about 3 weeks vs untreated controls
Excerpt: as §3, §4

VERPE [10] = assay: Post-emergence herbicidal action; format: in vivo, Veronica persica; settings: 80 g/ha, rated visually after about 3 weeks vs untreated controls
Procedure: as §1, §2

SETVI [11] = assay: Post-emergence herbicidal action; format: in vivo, Setaria viridis; settings: 80 g/ha, rated visually after about 3 weeks vs untreated controls
Procedure: as §1, §2

MATIN [12] = assay: Post-emergence herbicidal action; format: in vivo, Matricaria inodora; settings: 80 g/ha, rated visually after about 3 weeks vs untreated controls
Procedure: as §1, §2

SETVI [13] = assay: Pre-emergence herbicidal action; format: in vivo, Setaria viridis; settings: pre-emergence, 320 g/ha, scored visually after about 3 weeks vs untreated controls
Excerpt: as §3, §4

ECHCG [14] = assay: Post-emergence herbicidal action; format: in vivo, Echinochloa crus-galli; settings: 80 g/ha, rated visually after about 3 weeks vs untreated controls
Procedure: as §1, §2

ECHCG [15] = assay: Pre-emergence herbicidal action; format: in vivo, Echinochloa crus-galli; settings: 320 g/ha, scored visually after about 3 weeks vs untreated controls
Excerpt: as §3, §4

VERPE [16] = assay: Pre-emergence herbicidal action; format: in vivo, Veronica persica; settings: 320 g/ha, scored visually after about 3 weeks vs untreated controls
Excerpt: as §3, §4

`Cn1ncnc1NC(=O)c1ccc(C(F)(F)F)c2c1OC[S+]2[O-]` (stereo not drawn) [Example 1-50] was tested, and the “herbicidal activity AMARE” value (AMARE [1]; 20 g/ha) was 80%, the “herbicidal activity MATIN” value (MATIN [2]; 80 g/ha) was 90% and the “herbicidal activity ABUTH” value (ABUTH [3]; 20 g/ha) was 80%. For the same compound, the “herbicidal activity VIOTR” value (VIOTR [4]; 20 g/ha) was 80%.

In the case of `Cn1nnnc1NC(=O)c1ccc(C(F)F)c2c1SCS2` [Example 2-22], the “herbicidal activity PHBPU” value (PHBPU; 20 g/ha) is reported as 80% and the “herbicidal activity VIOTR” value (VIOTR [4]; 20 g/ha) is reported as 100%.

`Cn1nnnc1NC(=O)c1ccc(C(F)(F)F)c2c1SC[S+]2[O-]` (stereo not drawn) [Example 2-255] was tested, and the “herbicidal activity STEME” value (STEME [5]; 20 g/ha) was 80% and the “herbicidal activity VIOTR” value (VIOTR [4]; 20 g/ha) was 80%.

With `Cn1nnnc1NC(=O)c1ccc(C(F)(F)F)c2c1S(=O)(=O)CS2(=O)=O` [Example 2-43] the “herbicidal activity STEME” value (STEME [6]; 80 g/ha) was 90%, the “herbicidal activity AMARE” value (AMARE [1]; 20 g/ha) was 80% and the “herbicidal activity MATIN” value (MATIN [2]; 80 g/ha) was 80%. The “herbicidal activity ABUTH” value (ABUTH [7]; 80 g/ha) was 100%, the “herbicidal activity VIOTR” value (VIOTR [8]; 80 g/ha) was 100% and the “herbicidal activity AMARE” value (AMARE [9]; 80 g/ha) was 100%. The “herbicidal activity VIOTR” value (VIOTR [4]; 20 g/ha) was 90%.

In the case of `Cn1nnnc1NC(=O)c1ccc(S(C)(=O)=O)c2c1OCS2` [Example 2-58], the “herbicidal activity AMARE” value (AMARE [1]; 20 g/ha) is reported as 80% and the “herbicidal activity ABUTH” value (ABUTH [3]; 20 g/ha) is reported as 80%.

With `CCn1nnnc1NC(=O)c1ccc(C(F)(F)F)c2c1OCS2` [Example 3-52] the “herbicidal activity STEME” value (STEME [6]; 320 g/ha) was 100%, the “herbicidal activity AMARE” value (AMARE [1]; 80 g/ha) was 100% and the “herbicidal activity MATIN” value (MATIN [2]; 320 g/ha) was 90%. The “herbicidal activity ABUTH” value (ABUTH [7]; 320 g/ha) was 90%, the “herbicidal activity PHBPU” value (PHBPU; 80 g/ha) was 100% and the “herbicidal activity STEME” value (STEME [5]; 80 g/ha) was 100%. The “herbicidal activity ABUTH” value (ABUTH [3]; 80 g/ha) was 80%, the “herbicidal activity VERPE” value (VERPE [10]) was 100% and the “herbicidal activity VIOTR” value (VIOTR [8]; 320 g/ha) was 90%. For the same compound, the “herbicidal activity SETVI” value (SETVI [11]) was 100%, the “herbicidal activity AMARE” value (AMARE [9]; 320 g/ha) was 100% and the “herbicidal activity MATIN” value (MATIN [12]) was 90%. The “herbicidal activity SETVI” value (SETVI [13]) was 90%, the “herbicidal activity ECHCG” value (ECHCG [14]) was 100% and the “herbicidal activity VIOTR” value (VIOTR [4]; 80 g/ha) was 100%. The “herbicidal activity ECHCG” value (ECHCG [15]) was 90% and the “herbicidal activity VERPE” value (VERPE [16]) was 80%.

`Cc1ccc(C(=O)Nc2nnnn2C)c2c1S(=O)(=O)CO2` [Example 2-80] was tested, and the “herbicidal activity AMARE” value (AMARE [1]; 80 g/ha) was 90%, the “herbicidal activity MATIN” value (MATIN [2]; 320 g/ha) was 80% and the “herbicidal activity STEME” value (STEME [5]; 80 g/ha) was 90%. The “herbicidal activity AMARE” value (AMARE [9]; 320 g/ha) was 90%, the “herbicidal activity MATIN” value (MATIN [12]) was 80% and the “herbicidal activity VIOTR” value (VIOTR [4]; 80 g/ha) was 90%.

`CSc1ccc(C(=O)Nc2nnnn2C)c2c1SCS2` [Example 2-253] was tested, and the “herbicidal activity ABUTH” value (ABUTH [3]; 20 g/ha) was 90%.

With `Cn1nnnc1NC(=O)c1ccc(C(F)F)c2c1OC[S+]2[O-]` (stereo not drawn) [Example 2-69] the “herbicidal activity STEME” value (STEME [6]; 320 g/ha) was 90%, the “herbicidal activity AMARE” value (AMARE [1]; 80 g/ha) was 90% and the “herbicidal activity MATIN” value (MATIN [2]; 320 g/ha) was 90%. For the same compound, the “herbicidal activity ABUTH” value (ABUTH [7]; 320 g/ha) was 100%, the “herbicidal activity PHBPU” value (PHBPU; 80 g/ha) was 80% and the “herbicidal activity STEME” value (STEME [5]; 80 g/ha) was 100%. For the same compound, the “herbicidal activity ABUTH” value (ABUTH [3]; 80 g/ha) was 90%, the “herbicidal activity VERPE” value (VERPE [10]) was 90% and the “herbicidal activity VIOTR” value (VIOTR [8]; 320 g/ha) was 100%. For the same compound, the “herbicidal activity SETVI” value (SETVI [11]) was 80%, the “herbicidal activity AMARE” value (AMARE [9]; 320 g/ha) was 100% and the “herbicidal activity MATIN” value (MATIN [12]) was 90%. For the same compound, the “herbicidal activity SETVI” value (SETVI [13]) was 90%, the “herbicidal activity ECHCG” value (ECHCG [14]) was 100% and the “herbicidal activity VIOTR” value (VIOTR [4]; 80 g/ha) was 100%. The “herbicidal activity ECHCG” value (ECHCG [15]) was 90% and the “herbicidal activity VERPE” value (VERPE [16]) was 90%.

In the case of `Cn1nnnc1NC(=O)c1ccc(C(F)(F)F)c2c1SCS2` [Example 2-21, 7-(trifluoromethyl)-1,3-benzodithiolane-N-(1-methyltetrazol-5-yl)-4-carboxamide], the “herbicidal activity STEME” value (STEME [6]; 80 g/ha) is reported as 90%, the “herbicidal activity STEME” value (STEME [5]; 20 g/ha) is reported as 80% and the “herbicidal activity VIOTR” value (VIOTR [4]; 20 g/ha) is reported as 80%.

With `Cn1nnnc1NC(=O)c1ccc(C(F)F)c2c1OCS2(=O)=O` [Example 2-84] the “herbicidal activity STEME” value (STEME [6]; 320 g/ha) was 90%, the “herbicidal activity AMARE” value (AMARE [1]; 80 g/ha) was 100% and the “herbicidal activity MATIN” value (MATIN [2]; 320 g/ha) was 100%. For the same compound, the “herbicidal activity ABUTH” value (ABUTH [7]; 320 g/ha) was 90%, the “herbicidal activity PHBPU” value (PHBPU; 80 g/ha) was 90% and the “herbicidal activity STEME” value (STEME [5]; 80 g/ha) was 100%. The “herbicidal activity ABUTH” value (ABUTH [3]; 80 g/ha) was 90%, the “herbicidal activity VERPE” value (VERPE [10]) was 100% and the “herbicidal activity VIOTR” value (VIOTR [8]; 320 g/ha) was 100%. The “herbicidal activity SETVI” value (SETVI [11]) was 100%, the “herbicidal activity AMARE” value (AMARE [9]; 320 g/ha) was 100% and the “herbicidal activity MATIN” value (MATIN [12]) was 100%. For the same compound, the “herbicidal activity SETVI” value (SETVI [13]) was 90%, the “herbicidal activity ECHCG” value (ECHCG [14]) was 90% and the “herbicidal activity VIOTR” value (VIOTR [4]; 80 g/ha) was 100%. For the same compound, the “herbicidal activity VERPE” value (VERPE [16]) was 100%.

`Cn1nnnc1NC(=O)c1ccc(Cl)c2c1[S+]([O-])CS2` (stereo not drawn) [Example 2-254] was tested, and the “herbicidal activity AMARE” value (AMARE [9]; 80 g/ha) was 80%.
